Experimental data published in publication PMC7764665, “Food (Matrix) Effects on Bioaccessibility and Intestinal Permeability of Major Olive Antioxidants” (Foods, 2020).
In brackets after ≈: the same amount, converted by molar mass. Several values for one entry are separate records, joined by “and”; a condition that tells them apart may be missing. Equal entries are not always repeated.

Columns and labels:
[1] = parameters: method as in PMID 11435519; settings: rat model, lipid-rich matrix (olive oil); cited from earlier work
[2] = parameters: method as in PMID 18209271; settings: after virgin olive oil ingestion; cited from earlier work
[3] = Standardized static in vitro simulation of gastrointestinal digestion of OPE (bioaccessibility), alone or co-digested with food; format: in vitro ADME; settings: for bioaccessible amount after gastrointestinal digestion / amount in OPE before gastrointestinal digestion: OPE; for bioaccessible amount after gastrointestinal digestion: after simulated gastrointestinal digestion; for amount in OPE before gastrointestinal digestion: before digestion (start of the printed increase); for effect of standardized food model (SFM) on bioaccessibility: digestion with SFM compared to other applied methods
Description: Total polyphenols (total reductive capacity) of analyzed samples was assessed by Folin–Ciocalteu method that relies on the transfer of electrons in alkaline medium from phenolic (or other reductive) compounds to phosphomolybdic/phosphotungstic acid complexes, which are determined spectroscopically at 765 nm. Experiments were conducted according to the protocol described by Ainsworth and co-workers. Moreover, 20 µL of adequately diluted sample/standard/solvent (blank) were added in triplicate to 96-well plate (Thermo Fisher Scientific 130188, Rochester, NY, USA) and incubated at 37 °C with 50 µL of Folin Ciocalteu reagent (10% (v/v)) for 5 min. The 160 µL of Na2CO3 (700 mM) was added into each well, shaken, and incubated at 37 °C for 30 min. Absorbance was read at 765 nm and results were expressed as gallic acid equivalents (GAE). HTS and TS were identified and quantified by HPLC system (Waters Alliance 2695, Milford, MA, USA) coupled with a 2475 Multi λ detector (FLD) with Xenon lamp, according to slightly modified method of Tsarbopoulos and co-workers. Samples were prepared by filtration through 0.45 μm polyethersulfone (PES) syringe filters (Macherey–Nagel, Düren, Germany). Chromatographic separation was conducted by injecting 20 μL of sample on a reversed phase column (250 × 4.6 mm, 5 μm) (Agilent Zorbax Eclipse Plus C18, Santa Clara, CA, USA). Mobile phases were 0.05 M sodium acetate buffer pH 5 and acetonitrile with the flow rate of 1 mL/min. Elution was conducted over 25 min at 25 °C. Identification was performed with FLD set at the excitation wavelength of 280 nm, and emission wavelength of 316 nm. Polyphenols were identified by comparing the retention times of the eluting peaks with those of the standards. Peaks were quantified by using the Empower2 software (Waters, Milford, MA, USA) and compared to external standard calibration. Standard stock solutions were prepared by dissolving reference compounds in DMSO. In vitro simulation of gastrointestinal digestion and the assessment of bioaccessibility of hydroxytyrosol and tyrosol from OPE was conducted by standardized static in vitro digestion method suitable for food. Three-phase digestion process was applied consisting of short salivary phase, simulation of gastric digestion and simulation of duodenal digestion. Briefly, 200 mg of OPE was used alone or mixed with 600 mg of food matrix (Table S4) in 50 mL Falcon tube. The 875 µL of SSF, 125 µL of salivary α amylase solution, 6.25 µL of CaCl2 (0.3 mol/L), and 243.8 µL of water was added, and the mixture incubated at 37 °C for 2 min with constant shaking. The 2.5 mL of reaction mixture were transferred to another Falcon tube and mixed with 1.875 mL of SGF, 1.25 µL of CaCl2 (0.3 mol/L), and 50 µL of HCl (1 mol/L). The pH of the mixture was adjusted to 3, and total volume was adjusted to 5 mL with water. The content of the Falcon tube was vortexed and incubated for 2 h at 37 °C with constant shaking. Every 15 min pH of the mixture was checked and adjusted to 3 if necessary. At the end of simulation of the gastric digestion step, 5 mL of aliquot were transferred to another 50 mL Falcon tube for the simulation of intestinal digestion. The 2.75 mL of SIF, 1.25 mL of pancreatin solution, 0.625 mL of bile salt (160 mmol/L), 10 µL of CaCl2 (0.3 mol/L), and 37.5 µL of NaOH (1 mol/L) were added. The pH was checked and adjusted to 7. Total volume of reaction mixture was adjusted to […], mixtures were vortexed and incubated for 2 h at 37 °C with constant shaking. Every 15 min, pH of the mixture was checked and adjusted to 7 if necessary. After digestion, simulation samples were cooled at −20 °C for 10 min and centrifuged (Heraeus Biofuge Stratos, Hanau, Germany) for 20 min at 4 °C and 4100 rpm. For HPLC analysis of hydroxytyrosol and tyrosol, obtained supernatants were additionally filtered through 0.45 µm polyether sulfone (PES) syringe filters. […]

[4] = source not given; cited from earlier work
Caco-2 cell monolayer = assay: Transepithelial transport of HTS and TS in Caco-2 monolayers; settings: 2 h, compared to MIX; for transepithelial permeability in presence of glucose: 40 µg/mL HTS and TS with 10 mM glucose; for transepithelial permeability in presence of cellulose: 40 µg/mL HTS and TS with 1% cellulose
[5] = Standardized static in vitro simulation of gastrointestinal digestion of OPE (bioaccessibility), alone or co-digested with food; format: in vitro ADME; settings: fed vs fasted state biorelevant media (FeSSGF/FeSSIF vs FaSSGF/FaSSIF)
[6] = parameters: method as in PMID 29663812; settings: co-digestion with the test meal; cited from earlier work
Caco-2 Cells = system: Caco-2 Cells; parameters: method as in PMID 29663812; settings: co-digestion with the test meal; cited from earlier work
[7] = OPE co-digested with apple (peeled, no skin), relative to OPE without food
[8] = OPE co-digested with banana, relative to OPE without food
[9] = OPE co-digested with breakfast cereals, relative to OPE without food
[10] = OPE co-digested with canned tuna, relative to OPE without food
[11] = OPE co-digested with cellulose, relative to OPE without food
[12] = OPE co-digested with corn starch, relative to OPE without food
[13] = OPE co-digested with fresh low fat cheese, relative to OPE without food
[14] = OPE co-digested with honey, relative to OPE without food
[15] = OPE co-digested with milk formula, relative to OPE without food
[16] = OPE co-digested with milk, relative to OPE without food
[17] = OPE co-digested with potato (boiled), relative to OPE without food
[18] = OPE co-digested with silverbeat (blanched), relative to OPE without food
[19] = OPE co-digested with souce bolognese, relative to OPE without food
[20] = OPE co-digested with sour cream, relative to OPE without food
[21] = OPE co-digested with soy flakes, relative to OPE without food
[22] = OPE co-digested with whole-grain bread, relative to OPE without food
[23] = OPE co-digested with yoghurt, relative to OPE without food
[24] = OPE digested without food (reference)

| SMILES | greater absorption from olive oil compared to aqueous solution [1] [%] | time of peak concentration in plasma [2] | time of peak in urine [2] [h] | relative bioaccessibility [3, 7] [%] | relative bioaccessibility [3, 8] [%] | relative bioaccessibility [3, 9] [%] | relative bioaccessibility [3, 10] [%] | relative bioaccessibility [3, 11] [%] | relative bioaccessibility [3, 12] | relative bioaccessibility [3, 13] [%] | relative bioaccessibility [3, 14] | relative bioaccessibility [3, 15] [%] | relative bioaccessibility [3, 16] [%] | relative bioaccessibility [3, 17] [%] | relative bioaccessibility [3, 18] [%] | relative bioaccessibility [3, 19] [%] | relative bioaccessibility [3, 20] [%] | relative bioaccessibility [3, 21] [%] | relative bioaccessibility [3, 22] [%] | relative bioaccessibility [3, 23] [%] | also measured |
| --- | --- | --- | --- | --- | --- | --- | --- | --- | --- | --- | --- | --- | --- | --- | --- | --- | --- | --- | --- | --- | --- |
| OCCc1ccc(O)cc1 [TS, tyrosol] | 25 | around 1 h | 0 to 2 | 67.2 ± 0.55 | 104.5 ± 2.15 | 79.3 ± 8.70 | 98.5 ± 1.12 | 87.4 | 88.7% and 88.1 ± 1.66% | 106.4 ± 4.35 | 97.8% and 97.8 ± 0.91% | 81.3 ± 3.95 | 94.6 ± 1.63 | 92.4 ± 1.64 | 89.9 ± 4.59 | 92.4 ± 0.46 | 97.4 ± 3.34 | 93.0 ± 1.93 | 73.0 ± 0.66 | 73.8 ± 1.42 | relative bioaccessibility [3, 24]: 99.9 ± 6.75%; bioaccessible amount after gastrointestinal digestion [3]: 27.4 mg/100g; amount in OPE before gastrointestinal digestion [3]: 20.7 mg/100g; effect of standardized food model (SFM) on bioaccessibility [3]: no effect; water solubility [4]: 25.3 mg/mL (≈ 183 mM); transepithelial permeability in presence of glucose (Caco-2 cell monolayer): significantly improved; transepithelial permeability in presence of cellulose (Caco-2 cell monolayer): did not result in increased permeability; influence of food-induced changes of pH and digestion fluid composition on bioaccessibility [5]: do not influence |
| OCCc1ccc(O)c(O)c1 [HTS, 3-hydroxytyrosol] | 25 | around 1 h | 0 to 2 | 54.8 ± 0.72 | 65.8 ± 5.05 | 76.0 ± 2.30 | 98.3 ± 4.92 | 108.2 ± 2.24 | 94.9% and 94.9 ± 2.19% | 95.5 ± 8.16 | 89.5% and 89.5 ± 7.26% | 95.9 ± 0.96 | 98.6 ± 3.11 | 92.8 ± 5.88 | 69.3 ± 0.79 | 84.2 ± 4.61 | 102.3 ± 2.18 | 69.8 ± 1.06 | 57.4 ± 0.97 | 92.5 ± 0.82 | relative bioaccessibility ([3]; OPE co-digested with pectin, relative to OPE without food): 93.2% and 93.2 ± 3.04%; relative bioaccessibility [3, 24]: 100.0 ± 2.86%; bioaccessible amount after gastrointestinal digestion [3]: 109.3 mg/100g; amount in OPE before gastrointestinal digestion [3]: 78.4 mg/100g; effect of standardized food model (SFM) on bioaccessibility [3]: no effect; change of bioaccessibility by presence of foods [6]: −20%; change of intestinal permeability by presence of foods (Caco-2 Cells): −10%; water solubility [4]: 17.4 mg/mL (≈ 113 mM); transepithelial permeability in presence of glucose (Caco-2 cell monolayer): significantly improved; transepithelial permeability in presence of cellulose (Caco-2 cell monolayer): did not result in increased permeability; transepithelial permeability in presence of inulin (Caco-2 cell monolayer; 40 µg/mL HTS and TS with 1% inulin): significant reduction; influence of food-induced changes of pH and digestion fluid composition on bioaccessibility [5]: do not influence |
